Here are results for 29 molecules from patent US9708334B2, “Substituted 2,4,5,6-tetrahydropyrrolo[3,4-c]pyrazole and 4,5,6,7-tetrahydro-2H-pyrazolo[4,3-c]pyridine compounds as GlyT1 inhibitors” (DART NEUROSCIENCE (CAYMAN) LTD., priority 2014, dated 2017).

The assay addresses T1, GlyT1 (Homo sapiens, UniProt P48067).
T1 construct: expressed in transfected cells
T1 sequence (P48067 1-706): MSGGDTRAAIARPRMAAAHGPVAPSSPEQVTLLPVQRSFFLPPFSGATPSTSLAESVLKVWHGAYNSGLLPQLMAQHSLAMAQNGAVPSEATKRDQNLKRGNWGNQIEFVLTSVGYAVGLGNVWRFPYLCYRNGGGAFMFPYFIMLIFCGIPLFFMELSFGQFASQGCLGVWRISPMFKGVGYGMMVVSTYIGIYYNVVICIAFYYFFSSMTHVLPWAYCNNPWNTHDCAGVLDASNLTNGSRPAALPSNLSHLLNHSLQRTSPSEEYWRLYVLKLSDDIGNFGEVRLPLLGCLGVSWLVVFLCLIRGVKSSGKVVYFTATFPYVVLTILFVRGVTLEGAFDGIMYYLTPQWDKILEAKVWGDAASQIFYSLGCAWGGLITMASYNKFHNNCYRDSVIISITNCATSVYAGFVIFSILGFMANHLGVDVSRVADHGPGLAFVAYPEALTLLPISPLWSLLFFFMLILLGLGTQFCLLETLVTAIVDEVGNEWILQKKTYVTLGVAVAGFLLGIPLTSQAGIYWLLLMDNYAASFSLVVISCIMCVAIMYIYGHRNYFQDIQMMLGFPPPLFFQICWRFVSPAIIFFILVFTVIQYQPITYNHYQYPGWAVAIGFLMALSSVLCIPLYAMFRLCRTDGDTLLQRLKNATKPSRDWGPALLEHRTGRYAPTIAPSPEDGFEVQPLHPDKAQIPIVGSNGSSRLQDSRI
The experiment in a line: Glycine Transporter 1 (GlyT1) uptake assay, scintillation proximity assay of [14C]-glycine uptake. The conditions noted are these: SPA, four parameter logistic fit, read-out: GlyT1 (pIC50) (converted). It is filed as cell-based. The method in brief:
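[14C]-glycine uptake read by scintillation proximity on a plate counter. IC50 from four-parameter logistic fit of dose-response data.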
For orientation: In a scintillation proximity assay essentially only radioactivity close to the scintillant gives light.
For `Cc1cc(-n2cc3c(n2)CN(C(=O)c2cc(C#N)ccc2O[C@@H](C)C(F)(F)F)C3)cc(C)n1` [Example 380, 3-[2-(2 6-Dimethylpyridin-4-yl)-2H 4H 5H 6H-pyrrolo[3,4-c]pyrazole-5-carbonyl]-4-{[(2S)-1 1 1-trifluoropropan-2-yl]oxy}benzonitrile], the IC50 is less than 100 nM.

For the molecule `COc1c(C#N)ccc(OCC(F)F)c1C(=O)N1Cc2cn(-c3cccc(C)n3)nc2C1` [Example 332, 4-(2 2-Difluoroethoxy)-2-methoxy-3-[2-(6-methylpyridin-2-yl)-2H 4H 5H 6H-pyrrolo[3,4-c]pyrazole-5-carbonyl]benzonitrile], the IC50 was less than 100 nM.

For the molecule `CS(=O)(=O)c1ccc(-c2cccc(F)c2)c(C(=O)N2Cc3cn(-c4ccccn4)nc3C2)c1` [Example 152, 2-{5-[2-(3-Fluorophenyl)-5-methanesulfonylbenzoyl]-2H 4H 5H 6H-pyrrolo[3,4-c]pyrazol-2-yl}pyridine], the IC50 was less than 100 nM.

`CS(=O)(=O)c1ccc(-c2cccc(F)c2)c(C(=O)N2Cc3cn(-c4ccccc4F)nc3C2)c1` [Example 560, 2-(2-Fluorophenyl)-5-[2-(3-fluorophenyl)-5-methanesulfonylbenzoyl]-2H 4H 5H 6H-pyrrolo[3,4-c]pyrazole]: the IC50 was less than 100 nM.

Turning to `Cc1nc(-n2cc3c(n2)CN(C(=O)c2cc(C#N)ccc2OC(C)C)C3)ccc1F` [Example 339, 3-[2-(5-Fluoro-6-methylpyridin-2-yl)-2H 4H 5H 6H-pyrrolo[3,4-c]pyrazole-5-carbonyl]-4-(propan-2-yloxy)benzonitrile], the IC50 is 100 to 1000 nM.

Consider `Cc1cccnc1-n1cc2c(n1)CN(C(=O)c1c(O[C@@H](C)C(F)(F)F)ccc(C#N)c1Cl)C2` [Example 271, 2-Chloro-3-[2-(3-methylpyridin-2-yl)-2H 4H 5H 6H-pyrrolo[3,4-c]pyrazole-5-carbonyl]-4-{[(2S)-1 1 1-trifluoropropan-2-yl]oxy}benzonitrile], for which the IC50 was 100 to 1000 nM.

Turning to `CCS(=O)(=O)c1ccc(O[C@@H](C)C(F)(F)F)c(C(=O)N2Cc3cn(C4CCCC4)nc3C2)c1` [Example 417, 2-Cyclopentyl-5-[5-(ethanesulfonyl)-2-{[(2S)-1 1 1-trifluoropropan-2-yl]oxy}benzoyl]-2H 4H 5H 6H-pyrrolo[3,4-c]pyrazole], the IC50 is less than 100 nM.

On to `CC(C)Oc1ccc(C#N)cc1C(=O)N1Cc2cn(-c3ccnnc3)nc2C1` [Example 422, 4-(Propan-2-yloxy)-3-[2-(pyridazin-4-yl)-2H 4H 5H 6H-pyrrolo[3,4-c]pyrazole-5-carbonyl]benzonitrile], for which the IC50 is 100 to 1000 nM.

In the case of `COc1c(C#N)ccc(OC(C)C(F)(F)F)c1C(=O)N1CCc2nn(-c3cncc(F)c3)cc2C1` (centres unmarked) [Example 154, 3-[2-(5-Fluoropyridin-3-yl)-2H 4H 5H 6H 7H-pyrazolo[4,3-c]pyridine-5-carbonyl]-2-methoxy-4-[(1 1 1-trifluoropropan-2-yl)oxy]benzonitrile], the IC50 is less than 100 nM.

In the case of `C[C@H](Oc1ccc(C#N)cc1C(=O)N1Cc2cnn(CC3CCOCC3)c2C1)C(F)(F)F` [Example 394, 3-[1-(Oxan-4-ylmethyl)-1H 4H 5H 6H-pyrrolo[3,4-c]pyrazole-5-carbonyl]-4-{[(2S)-1 1 1-trifluoropropan-2-yl]oxy}benzonitrile], the IC50 is 1000 to 10000 nM.

Turning to `C[C@H](Oc1ccc(C#N)c(Cl)c1C(=O)N1Cc2cn(-c3ccccc3)nc2C1)C(F)(F)F` [Example 327, 2-Chloro-3-{2-phenyl-2H 4H 5H 6H-pyrrolo[3,4-c]pyrazole-5-carbonyl}-4-{[(2S)-1 1 1-trifluoropropan-2-yl]oxy}benzonitrile], the IC50 is less than 100 nM.

Consider `CC(C)(C)COc1ccc(S(C)(=O)=O)cc1C(=O)N1Cc2cn(-c3ccc(F)cc3)nc2C1` [Example 341, 5-[2-(2 2-Dimethylpropoxy)-5-methanesulfonylbenzoyl]-2-(4-fluorophenyl)-2H 4H 5H 6H-pyrrolo[3,4-c]pyrazole], for which the IC50 is less than 100 nM.

As to `C[C@H](Oc1ccc(C#N)c(Cl)c1C(=O)N1Cc2cn(-c3ccc(C(F)(F)F)cn3)nc2C1)C(F)(F)F` [Example 286], the IC50 is 100 to 1000 nM.

As to `C[C@H](Oc1ccc(S(C)(=O)=O)cc1C(=O)N1Cc2cn(CC3CCC3)nc2C1)C(F)(F)F` [Example 409], the IC50 is less than 100 nM.

As to `COc1c(C#N)ccc(OCC(F)F)c1C(=O)N1Cc2cn(-c3ccnc(C)c3)nc2C1` [Example 333, 4-(2 2-Difluoroethoxy)-2-methoxy-3-[2-(2-methylpyridin-4-yl)-2H 4H 5H 6H-pyrrolo[3,4-c]pyrazole-5-carbonyl]benzonitrile], the IC50 was 100 to 1000 nM.

`COc1c(C#N)ccc(O[C@@H](C)C(F)(F)F)c1C(=O)N1Cc2cn(-c3cn(C)c(C)n3)nc2C1` [Example 280, 3-[2-(1 2-Dimethyl-1H-imidazol-4-yl)-2H 4H 5H 6H-pyrrolo[3,4-c]pyrazole-5-carbonyl]-2-methoxy-4-{[(2S)-1 1 1-trifluoropropan-2-yl]oxy}benzonitrile]: the IC50 is 100 to 1000 nM.

With `CS(=O)(=O)c1ccc(N2CCCCC2)c(C(=O)N2Cc3cn(-c4ccc(F)cc4)nc3C2)c1` [Example 363, 1-{2-[2-(4-Fluorophenyl)-2H 4H 5H 6H-pyrrolo[3,4-c]pyrazole-5-carbonyl]-4-methanesulfonylphenyl}piperidine], the IC50 is less than 100 nM.

Regarding `CC(C)Oc1ccc(S(C)(=O)=O)cc1C(=O)N1Cc2cn(-c3ccccc3)nc2C1` [Example 45, 5-[5-Methanesulfonyl-2-(propan-2-yloxy)benzoyl]-2-phenyl-2H 4H 5H 6H-pyrrolo[3,4-c]pyrazole], the IC50 was less than 100 nM.

Regarding `CS(=O)(=O)c1ccc(-c2cc(F)cc(F)c2)c(C(=O)N2Cc3cn(-c4cncc(F)c4)nc3C2)c1` [Example 563, 3-{5-[2-(3 5-Difluorophenyl)-5-methanesulfonylbenzoyl]-2H 4H 5H 6H-pyrrolo[3,4-c]pyrazol-2-yl}-5-fluoropyridine], the IC50 was less than 100 nM.

Take `CCS(=O)(=O)c1ccc(O[C@@H](C)C(F)(F)F)c(C(=O)N2Cc3cn(-c4cccc(F)c4Cl)nc3C2)c1` [Example 151, 2-(2-Chloro-3-fluorophenyl)-5-[5-(ethanesulfonyl)-2-{[(2S)-1 1 1-trifluoropropan-2-yl]oxy}benzoyl]-2H 4H 5H 6H-pyrrolo[3,4-c]pyrazole]: the IC50 is less than 100 nM.

For `COc1c(C#N)ccc(OC(C)CF)c1C(=O)N1Cc2cn(-c3ccc(F)cc3)nc2C1` (centres unmarked) [Example 517, 3-[2-(4-Fluorophenyl)-2H 4H 5H 6H-pyrrolo[3,4-c]pyrazole-5-carbonyl]-4-[(1-fluoropropan-2-yl)oxy]-2-methoxybenzonitrile], the IC50 was less than 100 nM.

With `CC(C)(C)COc1ccc(S(C)(=O)=O)cc1C(=O)N1Cc2cn(-c3cccc(C(F)(F)F)c3F)nc2C1` [Example 49, 5-[2-(2 2-Dimethylpropoxy)-5-methanesulfonylbenzoyl]-2-[2-fluoro-3-(trifluoromethyl)phenyl]-2H 4H 5H 6H-pyrrolo[3,4-c]pyrazole], the IC50 is less than 100 nM.

For `CC(C)Oc1ccc(S(C)(=O)=O)cc1C(=O)N1Cc2cn(-c3ccc(F)c(C(F)F)c3)nc2C1` [Example 76, 2-[3-(Difluoromethyl)-4-fluorophenyl]-5-[5-methanesulfonyl-2-(propan-2-yloxy)benzoyl]-2H 4H 5H 6H-pyrrolo[3,4-c]pyrazole], the IC50 is less than 100 nM.

Take `CC(Oc1ccc(C#N)c(Cl)c1C(=O)N1CCc2nn(-c3ccccc3)cc2C1)C(F)(F)F` (centres unmarked) [Example 193, 2-Chloro-3-{2-phenyl-2H 4H 5H 6H 7H-pyrazolo[4,3-c]pyridine-5-carbonyl}-4-[(1 1 1-trifluoropropan-2-yl)oxy]benzonitrile]: the IC50 is 100 to 1000 nM.

For `COc1c(S(C)(=O)=O)ccc(O[C@@H](C)C(F)(F)F)c1C(=O)N1Cc2cn(-c3ccc(F)cc3)nc2C1` [Example 300, 2-(4-Fluorophenyl)-5-(3-methanesulfonyl-2-methoxy-6-{[(2S)-1 1 1-trifluoropropan-2-yl]oxy}benzoyl)-2H 4H 5H 6H-pyrrolo[3,4-c]pyrazole], the IC50 is less than 100 nM.

Turning to `CCc1cc(-n2cc3c(n2)CN(C(=O)c2cc(S(C)(=O)=O)ccc2-c2cccc(F)c2)C3)ccn1` [Example 143, 2-Ethyl-4-{5-[2-(3-fluorophenyl)-5-methanesulfonylbenzoyl]-2H 4H 5H 6H-pyrrolo[3,4-c]pyrazol-2-yl}pyridine], the IC50 is less than 100 nM.

On to `CC1(COc2ccc(C#N)c(Cl)c2C(=O)N2CCc3nn(-c4ccccc4)cc3C2)COC1` [Example 506, 2-Chloro-4-[(3-methyloxetan-3-yl)methoxy]-3-{2-phenyl-2H 4H 5H 6H 7H-pyrazolo[4,3-c]pyridine-5-carbonyl}benzonitrile], for which the IC50 is 1000 to 10000 nM.

As to `CS(=O)(=O)c1ccc(N2CCCCC2)c(C(=O)N2Cc3cn(-c4cncc(F)c4)nc3C2)c1` [Example 116, 3-Fluoro-5-{5-[5-methanesulfonyl-2-(piperidin-1-yl)benzoyl]-2H 4H 5H 6H-pyrrolo[3,4-c]pyrazol-2-yl}pyridine], the IC50 is less than 100 nM.

For `COc1c(C#N)ccc(O[C@@H](C)C(F)(F)F)c1C(=O)N1Cc2cn(-c3ccc(C(F)(F)F)nc3)nc2C1` [Example 254], the IC50 was less than 100 nM.
